Experimental data reported in patent US9340788B2 (priority 2007, dated 2016).
“Also recorded” adds a separate entry of the source.

Columns and labels:
PI3-K/Akt signaling = format: cell-based, human
Description: (A) HEL cells stimulated with HCMV or PDGF-AA were subjected to immunoprecipitation and western blot analyses with indicated antibodies. (B) Phospho-PDGFRα ELISA of cells+/−pretreatment with IMC-3G3 (10 μg/ml, 2 h) followed by HCMV (MOI=1) or PDGF (10 ng/ml) for 10 min. Mean values (n=6)±S.D are shown. (C) Western blot of HEL mock, HCMV, or PDGF-AA stimulated (10 min), +/−IMC-3G3 (2 μg/ml) or Gleevec® (Imatinib) (100 nM). The same membrane was used for p-Akt^Ser 473 and Akt.
HEL cells pretreated with blocking reagents (as indicated; 30 min, 37 C) were stimulated for 10 min with HCMV, PDGF-AA (5 ng/ml), or mock-treated. Cell lysates were collected in RIPA buffer (supplemented with protease and phosphatase inhibitors) and subjected to Western blot analysis.
For stimulation experiments, cells were serum-starved for 24 h, followed by stimulation with HCMV (MOI of 0.5), PDGF-AA (5-10 ng/ml, from R&D Systems), or mock, for 10 minutes. In some cases, cells were pre-treated with IMC-3G3 (ImClone Inc.) at 10 g/ml (2 or 12 h) or Gleevec® (100 nM, 1 h) prior to HCMV exposure. Cell lysates were analyzed by SDS-PAGE. Antibodies used were as follows: polyclonal anti-PDGFRα ( 1/500), phosphor-Tyrosine clone 4G10 ( 1/1000), and monoclonal anti-p85 PI3-K ( 1/1000), (Upstate Biotechnology), anti HCMV IE1 MAB810 (Chemicon; 1/1000), anti HCMV pp65 (Novocastra, 1/1000), anti-phosphor-PDGFRα ( 1/500, pTyr 754), anti-phosphor-Akt (Ser 473, 1/1000) and total Akt ( 1/1000; all from Cell Signaling). Anti-actin polyclonal control antibody was used ( 1/500, Sigma). Immunoprecipitations were performed using protein G (Pierce) according to manufacturer's instructions.

HCMV [1] = assay: Viral attachment and internalization assay (pp65 immunofluorescence); format: cell-based, Human cytomegalovirus
Description: (A) HEL cells were pretreated with PBS (20 min 4° C.), IMC-3G3 (2 h, 37° C., 10 μg/ml), or PDGF-AA (20 min, 4° C., 10 ng/ml) prior to infection with HCMV (MOI of 1, 4° C., 1 h). Cells were returned to 37° C. for 30 minutes, and processed for pp65^HCMV and PDGFRα double immunofluorescence. […] All conditions were assayed in triplicate cultures. One hundred cells in 4 low magnification fields were counted. Bars represent SD.
Viral Attachment and Internalization Assays. Mouse fibroblasts and HEL cells (72 hours following siRNA transfections) were incubated with HCMV (MOI of 0.5) or mock treated for 1 hour at 4° C., after which cells were returned to 37° C. for 15, 30, or 60 min. Cells were fixed using methanol (20 min) and processed for pp65 immunofluorescence. Four low power fields were counted for each condition and pp65 positive were recorded for each 100 cells. Internalization assays were repeated twice.

HCMV [2] = assay: HCMV IE1 / viral gene expression, western blot of infected cells; format: cell-based, Human cytomegalovirus; settings: for HCMV IE1 gene expression: IMC-3G3 10 μg/ml 12 h or Gleevec 100 nM 1 h pre-treatment, western blot
Description: (A) pp65 immunofluorescence after HCMV treatment (1 h, 4° C.) followed by shifting to 37° C. for indicated times. Rows represent (top to bottom): HEL, PDGFRα null fibroblasts, parental fibroblasts, null fibroblasts overexpressing hPDGFRα, HEL transfected with control, or PDGFRα siRNA. Nuclei were stained with DAPI. (B) Average±S.D. pp65 positive/100 cells counted in triplicate from (A). (C) Mock or HCMV infected cells were analyzed by western blotting with the indicated antibodies. Lanes 1-4 indicate HEL, 325S, PDGFRα null and PDGFRα null over-expressing hPDGFRα, respectively. (D) HEL transfected with control or PDGFRα siRNA were mock (lanes 1) or HCMV-treated (lanes 2) and subjected to western blots with indicated antibodies. (E) Western blot of HEL and U87 lysates after infection with mock (lanes 1), HCMV (lanes 2), or HCMV pretreated with IMC-3G3 (10 μg/ml, 12 h, lanes 3) or Gleevec (100 nM, 1 h, lanes 4). (F) PDGFRα siRNA treated cells infected with indicated HCMV strains and immunostained for IE1 12 hpi (primary infection). 6 dpi, supernatants were used to infect naïve HEL cells, followed by IE1 immunostaining and quantification (secondary infection). Average (n=6) values±S.D. are shown.
HUVEC cells were pre-treated with IMC-3G3 (10 μg/ml, Imclone, 12 h), or Gleevec (100 nM, 1 h) prior to HCMV or mock infection. 12 hours post-infection, cell lysates were analyzed by western blot for the presence of IE1 gene product. […] The same blot was stripped and re-probed for actin (lower panel). Lane designation is 1—Mock, 2—HCMV, 3—IMC-3G3+HCMV, 4—Gleevec+HCMV.
Upper panel: HEL cells pretreated with anti-human PDGFRα antibody (10 ng/ml, for 30 min, clone AF-307-NA from R&D; lanes 1 and 3) or with AG 1295 (lane 4, […], from Calbiochem) were stimulated with Towne HCMV (lanes 2 through 4) or Mock infected (lane 1) for 10 min at 37 C. Cells were washed and further incubated for 2 h at 37 C (to allow expression of IE1 gene product). Afterwards, cells were harvested in RIPA buffer and processed for western blotting as described.
Western Blot, Immunoprecipitation, and Immunofluorescence analyses. For stimulation experiments, cells were serum-starved for 24 h, followed by stimulation with HCMV (MOI of 0.5), PDGF-AA (5-10 ng/ml, from R&D Systems), or mock, for 10 minutes. In some cases, cells were pre-treated with IMC-3G3 (ImClone Inc.) at 10 µg/ml (2 or 12 h) or Gleevec® (100 nM, 1 h) prior to HCMV exposure. Cell lysates were analyzed by SDS-PAGE. Antibodies used were as follows: polyclonal anti-PDGFRα ( 1/500), phosphor-Tyrosine clone 4G10 ( 1/1000), and monoclonal anti-p85 PI3-K ( 1/1000), (Upstate Biotechnology), anti HCMV IE1 MAB810 (Chemicon; 1/1000), anti HCMV pp65 (Novocastra, 1/1000), anti-phosphor-PDGFRα ( 1/500, pTyr 754), anti-phosphor-Akt (Ser 473, 1/1000) and total Akt ( 1/1000; all from Cell Signaling). Anti-actin polyclonal control antibody was used ( 1/500, Sigma). Immunoprecipitations were performed using protein G (Pierce) according to manufacturer's instructions. For immunofluorescence, monoclonal HCMV pp65 and phosphor-PDGFRα (p-Tyr 754, Santa Cruz Biotechnology) were used, overnight at 4° C., followed by 1 hour incubation with secondary antibodies conjugated to Alexa-488, or Alexa 568 ( 1/5,000, Molecular Probes). Nuclei were counterstained with DAPI. Co-immunoprecipitation experiments were performed using full length soluble purified recombinant gB (gB 680, from Don Diamond, City of Hope, Calif.) and detergent soluble extract of HEL cells generated in lysis buffer (1% NP-40, 75 mM NaCl and 50 mM Tris-HCl). 500 μg of protein from total cell extract was incubated with 25 μg of gB 680 in lysis buffer in the presence of an anti-gB (Virusys, Inc) or anti-PDGFRα (R&D) antibody overnight at 4° C. Immune complexes were recovered with protein A-Sepharose beads (2 hr incubation), denatured and separated on SDS-PAGE for western blot with anti-gB (Virusys, Inc) or anti-PDGFRα (Cell Signaling Technology) antibodies.

HCMV [3] = assay: HCMV pp65 western blot in HEL cells; format: cell-based, Human cytomegalovirus; settings: antibody 10 ng/ml 30 min or AG 1295 20 pM, Towne HCMV 10 min at 37 C
Description: HEL cells were transfected with siRNA against the PI3K p110α catalytic subunit (a mixture of 4 RNAi oligos, “smart pool” from Dharmacon) or non-targeting, control siRNA (Dharmacon) for 48 h prior to infection with HCMV (MOI of 1) for 1 hour. Cells were washed and cultured for 2 h-6 days. a. […] The mean number of IE1 positive cells is reduced by ˜50% in the PI3 Kp110α knockdown cultures—panel c**, p<0.01. PI3K p110α knock down is also significant (b, left panels, red fluorescence). However, unlike cells that lack a functional PDGFRα, PI3K p110α knock down cells are capable of producing infectious virus as shown by IE1 staining of the secondary infected cultures (panel d). A 10% decrease in infectious virus production in the cells treated with p110α siRNA is insignificant*, bars represent SD, […], panel c. Experiments were repeated twice, all conditions were assayed in triplicate. Similar results were obtained with both Towne-infected cultures (illustrated in this figure) and CMV-GFP.
Upper panel: HEL cells pretreated with anti-human PDGFRα antibody (10 ng/ml, for 30 min, clone AF-307-NA from R&D; lanes 1 and 4) or with AG 1295 (lane 3, […], from Calbiochem) were stimulated with Towne HCMV (lanes 2-4) or Mock infected (lane 1) for 10 min at 37 C. […]
Western Blot, Immunoprecipitation, and Immunofluorescence analyses. […] Cell lysates were analyzed by SDS-PAGE. […]

HCMV [4] = assay: IE1 immunofluorescence of HCMV infected HEL cells; format: cell-based, Human cytomegalovirus; settings: HEL; antibody 1 h or AG1295 15 min before HCMV; 1 h at 37 C plus additional 6 h
Description: HEL cells were transfected with PDGFRα siRNA (smart pool, Dharmacon) or non-targeting control siRNA (Dharmacon) for 48-60 hours when maximum protein knockdown is achieved (panels a and b. Also see FIG. 3d). Cells were then infected with Towne, AD169, TR, or CMV-GFP strains of HCMV for 1 hour, washed and returned to 37° C. in complete growth media. Supernatants obtained from these cultures were used in subsequent assays measuring production of infectious virus as described below. […] Cultures infected with supernatants from GFP-CMV treated cells were monitored daily under the fluorescence microscope. Over 40% of the control siRNA treated cells expressed CMV-GFP 1 day post infection (c, 1 dpi) and this number increased to 100% by day 6 (c, 6 dpi). Note the appearance of “plaques”-like groups of cells in control siRNA transfected cells (c, 3 and 6 dpi). […]
Measurements of Infectious Virus Production. […] A duplicate set of cultures was analyzed by immunofluorescence at 12 hours post infection (hpi) to assess percent of IE1 positive cells, as a measure of “primary infection”. […] 12 hpi cells were stained for IE1 and IE1 positive cells were counted amongst a total of 100 cells/low magnification microscopic field, 4 fields/condition. […] Where indicated, CMV-GFP infected cells were monitored daily under fluorescence microscope. […]

[5] = human epithelial, endothelial, and fibroblast cells

Cc1ccc(NC(=O)c2ccc(CN3CCN(C)CC3)cc2)cc1Nc1nccc(-c2cccnc2)n1 [Gleevec, 4-[(4-methylpiperazin-1-yl)methyl]-N-[4-methyl-3-[(4-pyridin-3-ylpyrimidin-2-yl)amino]-phenyl]-benzamide, reference compound]
Akt phosphorylation induced by either HCMV or PDGF-AA (PI3-K/Akt signaling; HEL, 10 min stimulation, IMC-3G3 2 μg/ml or Gleevec 100 nM, p-Akt Ser 473): abolished | HCMV viral internalization (HCMV [1]; [5]): completely inhibited | HCMV IE1 gene expression (HCMV [2]; HEL cells): completely inhibited | HCMV IE1 expression (HCMV [2]; HUVEC, pre-treated with IMC-3G3 10 μg/ml 12 h or Gleevec 100 nM 1 h, western blot 12 hours post-infection): completely inhibited | HCMV IE1 gene expression (HCMV [2]; U87 glioma cells): completely inhibited | HCMV gene expression (HCMV [2]; [5]): completely inhibited

PDGF-AA: the authentic (genuine) PDGFRα ligand, from R&D Systems [reference compound]
HCMV entry (HCMV [1]; HEL cells harboring endogenous PDGFRα, pretreatment with PDGF-AA): significantly decreased; also recorded: competitively inhibited | inhibition of HCMV entry (pp65 positive cells) (HCMV [1]; HEL cells, IMC-3G3 2 h, 37° C., 10 μg/ml, PDGF-AA 20 min, 4° C., 10 ng/ml, HCMV MOI of 1, 30 min at 37° C.): ~30%

Cc1cc2ncc(-c3ccccc3)nc2cc1C [AG1295, reference compound]
p-Akt levels induced by either PDGF or HCMV (PI3-K/Akt signaling; HEL pretreated with blocking reagents 30 min, 37 C, stimulated 10 min with HCMV or PDGF-AA 5 ng/ml): decreased | amount of pp65 (anti-pp65 blot) (HCMV [3]): decrease | IE1 levels (HCMV [4]): significant decrease
